In US20230312556A1, “ARYLAMIDE COMPOUND, PHARMACEUTICAL COMPOSITION COMPRISING SAME, AND PREPARATION METHOD THEREFOR AND USE THEREOF” (SICHUAN KELUN-BIOTECH BIOPHARMACEUTICAL CO., LTD., priority 2020, published 2023):

Target: mutant BRAF enzyme (BRAF-V600E) (Homo sapiens (Human), UniProt P15056, V600E)
Test: RAF inhibition assay (TB-PMAP2K1 kit), BRAF-V600E
Assay type: biochemical
Conditions: FLUORESCEIN-MAP2K1 substrate, 60 min reaction

Chain of mutant BRAF enzyme (BRAF-V600E) (P15056 whole entry V600E): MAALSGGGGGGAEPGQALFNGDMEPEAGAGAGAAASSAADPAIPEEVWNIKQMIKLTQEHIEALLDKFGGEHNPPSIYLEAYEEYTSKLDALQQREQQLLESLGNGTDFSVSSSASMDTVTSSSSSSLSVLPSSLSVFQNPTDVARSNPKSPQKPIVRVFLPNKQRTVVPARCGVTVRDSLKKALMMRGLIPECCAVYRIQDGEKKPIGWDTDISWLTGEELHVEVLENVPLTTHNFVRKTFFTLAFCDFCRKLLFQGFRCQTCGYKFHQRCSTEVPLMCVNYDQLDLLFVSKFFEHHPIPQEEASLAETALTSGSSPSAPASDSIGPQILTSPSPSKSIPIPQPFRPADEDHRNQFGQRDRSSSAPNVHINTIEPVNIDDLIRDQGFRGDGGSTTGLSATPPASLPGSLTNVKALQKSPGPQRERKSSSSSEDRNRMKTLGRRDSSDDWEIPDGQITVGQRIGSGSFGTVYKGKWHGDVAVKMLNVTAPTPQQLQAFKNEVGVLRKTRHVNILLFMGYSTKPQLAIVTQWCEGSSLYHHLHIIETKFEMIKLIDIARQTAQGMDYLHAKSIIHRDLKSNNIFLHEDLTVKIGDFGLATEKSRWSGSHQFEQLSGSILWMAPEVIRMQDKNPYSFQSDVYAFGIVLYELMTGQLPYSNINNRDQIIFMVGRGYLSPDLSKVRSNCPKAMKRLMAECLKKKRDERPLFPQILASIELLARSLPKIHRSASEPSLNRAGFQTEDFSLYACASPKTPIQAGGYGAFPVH

SMILES | IC50
Cc1ccc2c(Nc3ccc(F)c(Cl)c3)nccc2c1NC(=O)c1cnc2c(N)ncnn12 [Compound 58, 4-amino-N-(1-((3-chloro-4-fluorophenyl)amino)-6-methylisoquinolin-5-yl)imidazo[2,1-f][1,2,4]triazine-7-carboxamide] | 4.47 ± 0.6 nM
COc1ccc(Nc2nccc3c(NC(=O)c4cccc5c(N)ncnc45)c(C)ccc23)c(F)c1 [Compound 60, 4-amino-N-(1-((2-fluoro-4-methoxyphenyl)amino)-6-methylisoquinolin-5-yl)quinazoline-8-carboxamide] | 6.31 ± 1.09 nM
Cc1ccc2c(Nc3cccc(C(F)(F)F)c3)nccc2c1NC(=O)c1cnc2c(N)ncnn12 [Compound 43, 4-amino-N-(6-methyl-1-((3-(trifluoromethyl)phenyl)amino)isoquinolin-5-yl)imidazo[2,1-f][1,2,4]triazine-7-carboxamide] | 4.84 ± 0.97 nM
Cc1ccc2c(Cc3cccc(Cl)c3F)nccc2c1NC(=O)c1csc2c(N)ncnc12 [Compound 8, 4-amino-N-(1-(3-chloro-2-fluorobenzyl)-6-methylisoquinolin-5-yl)thieno[3,2-d]pyrimidine-7-carboxamide] | 8.63 ± 0.99 nM
Cc1ccc2c(Nc3ccc4c(c3)CN(C)CC4)nccc2c1NC(=O)c1cccc2c(N)ncnc12 [Compound 82, 4-amino-N-(6-methyl-1-((2-methyl-1,2,3,4-tetrahydroisoquinolin-7-yl)amino)isoquinolin-5-yl)quinazoline-8-carboxamide] | 13.2 ± 1.69 nM
Cc1ccc2c(Nc3cccc(Cl)c3F)nccc2c1NC(=O)c1cc(N2CCOCC2)cc2c(N)ncnc12 [Compound 53, 4-amino-N-(1-((3-chloro-2-fluorophenyl)amino)-6-methylisoquinolin-5-yl)-6-morpholinoquinazoline-8-carboxamide] | 17.3 ± 3.43 nM
Cc1ccc2c(C(O)c3ccc(C(F)(F)F)cc3)nccc2c1NC(=O)c1csc2c(N)ncnc12 (stereo not shown) [Compound 33, 4-amino-N-(1-(hydroxy(4-(trifluoromethyl)phenyl)methyl)-6-methylisoquinolin-5-yl)thieno[3,2-d]pyrimidine-7-carboxamide] | 33.5 ± 6.13 nM
Cc1ccc2c(Nc3ccc(CN(C)C)c(C(F)(F)F)c3)nccc2c1NC(=O)c1cnc2c(N)ncnn12 [Compound 62, 4-amino-N-(1-((4-((dimethylamino)methyl)-3-(trifluoromethyl)phenyl)amino)-6-methylisoquinolin-5-yl)imidazo[2,1-f][1,2,4]triazine-7-carboxamide] | 19.7 ± 4.67 nM
Cc1ccc2c(Nc3cc(C#N)ccc3F)nccc2c1NC(=O)c1cccc2c(N)ncnc12 [Compound 80, 4-amino-N-(1-((5-cyano-2-fluorophenyl)amino)-6-methylisoquinolin-5-yl)quinazoline-8-carboxamide] | 13.5 ± 12.1 nM
Cc1ccc2c(Cc3ccc(Cl)cc3F)nccc2c1NC(=O)c1csc2c(N)ncnc12 [Compound 26, 4-amino-N-(1-(4-chloro-2-fluorobenzyl)-6-methylisoquinolin-5-yl)thieno[3,2-d]pyrimidine-7-carboxamide] | 9 ± 0.77 nM
Cc1ccc2c(Nc3cccc(Cl)c3F)nccc2c1NC(=O)c1nccc2c(N)ncnc12 [Compound 66, 4-amino-N-(1-((3-chloro-2-fluorophenyl)amino)-6-methylisoquinolin-5-yl)pyrido[3,4-d]pyrimidine-8-carboxamide] | 2.57 ± 0.32 nM
Cc1cc(C(=O)Nc2c(C)ccc3c(Nc4cccc(Cl)c4F)nccc23)c2ncnc(N)c2c1 [Compound 45, 4-amino-N-(1-((3-chloro-2-fluorophenyl)amino)-6-methylisoquinolin-5-yl)-6-methylquinazoline-8-carboxamide] | 18.2 ± 7.52 nM
Cc1ccc2c(Cc3ccccc3Cl)nccc2c1NC(=O)c1cccc2c(N)ncnc12 [Compound 25, 4-amino-N-(1-(2-chlorobenzyl)-6-methylisoquinolin-5-yl)quinazoline-8-carboxamide] | 6.31 ± 0.99 nM
Cc1ccc2c(C(=O)c3ccc(Cl)cc3F)nccc2c1NC(=O)c1csc2c(N)ncnc12 [Compound 27, 4-amino-N-(1-(4-chloro-2-fluorobenzoyl)-6-methylisoquinolin-5-yl)thieno[3,2-d]pyrimidine-7-carboxamide] | 6.48 ± 0.93 nM
Cc1ccc2c(Cc3ccc(Cl)cc3)nccc2c1NC(=O)c1csc2c(N)ncnc12 [Compound 18, 4-amino-N-(1-(4-chlorobenzyl)-6-methylisoquinolin-5-yl)thieno[3,2-d]pyrimidine-7-carboxamide] | 8.33 ± 1.25 nM
Cc1ccc2c(C(O)c3cccc(Cl)c3)nccc2c1NC(=O)c1csc2c(N)ncnc12 (stereo not shown) [Compound 17, 4-amino-N-(1-((3-chlorophenyl)(hydroxy)methyl)-6-methylisoquinolin-5-yl)thieno[3,2-d]pyrimidine-7-carboxamide] | 5.73 ± 1.05 nM
Cc1ccc2c(Nc3cccc(Cl)c3F)nccc2c1NC(=O)c1cnc2c(N)ncnn12 [Compound 30, 4-amino-N-(1-((3-chloro-2-fluorophenyl)amino)-6-methylisoquinolin-5-yl)imidazo[2,1-f][1,2,4]triazine-7-carboxamide] | 4.1 ± 0.2 nM

SMILES | IC50
Cc1ccc2c(Nc3c(F)c(F)cc(F)c3F)nccc2c1NC(=O)c1cccc2c(N)ncnc12 [Compound 95, 4-amino-N-(6-methyl-1-((2,3,5,6-tetrafluorophenyl)amino)isoquinolin-5-yl)quinazoline-8-carboxamide] | 13.9 ± 1.48 nM
Cc1ccc2c(Nc3ccc(Cl)cc3F)nccc2c1NC(=O)c1cnc2c(N)ncnn12 [Compound 55, 4-amino-N-(1-((4-chloro-2-fluorophenyl)amino)-6-methylisoquinolin-5-yl)imidazo[2,1-f][1,2,4]triazine-7-carboxamide] | 2.86 ± 0.24 nM
Cc1ccc2c(C(=O)c3ccc(Cl)cc3)nccc2c1NC(=O)c1csc2c(N)ncnc12 [Compound 21, 4-amino-N-(1-(4-chlorobenzoyl)-6-methylisoquinolin-5-yl)thieno[3,2-d]pyrimidine-7-carboxamide] | 5.99 ± 1.82 nM
Cc1ccc2c(C(O)c3ccc(N(C)C)nc3)nccc2c1NC(=O)c1csc2c(N)ncnc12 (stereo not shown) [Compound 37, 4-amino-N-(1-((6-(dimethylamino)pyridin-3-yl)(hydroxy)methyl)-6-methylisoquinolin-5-yl)thieno[3,2-d]pyrimidine-7-carboxamide] | 20.4 ± 3.03 nM
Cc1ccc2c(Nc3cccc(Cl)c3F)nccc2c1NC(=O)c1cccc2c(N)nccc12 [Comparative Example 1, 1-amino-N-(1-((3-chloro-2-fluorophenyl)amino)-6-methylisoquinolin-5-yl)isoquinoline-5-carboxamide, reference compound] | > 1000 nM
COc1ccc(Nc2nccc3c(NC(=O)c4cnc5c(N)ncnn45)c(C)ccc23)cc1Cl [Compound 56, 4-amino-N-(1-((3-chloro-4-methoxyphenyl)amino)-6-methylisoquinolin-5-yl)imidazo[2,1-f][1,2,4]triazine-7-carboxamide] | 3.16 ± 0.67 nM
Cc1ccc2c(Nc3cccc(Cl)c3F)nccc2c1NC(=O)c1cc(OCCN2CCOCC2)cc2c(N)ncnc12 [Compound 79, 4-amino-N-(1-((3-chloro-2-fluorophenyl)amino)-6-methylisoquinolin-5-yl)-6-(2-morpholinoethoxy)quinazoline-8-carboxamide] | 14.7 ± 1.66 nM
Cc1ccc2c(Nc3cccc(Cl)c3F)nccc2c1NC(=O)c1cncc2c(N)ncnc12 [Compound 69, 4-amino-N-(1-((3-chloro-2-fluorophenyl)amino)-6-methylisoquinolin-5-yl)pyrido[4,3-d]pyrimidine-8-carboxamide] | 4.3 ± 1.14 nM
Cc1ccc2c(C(O)c3ccc(Cl)cc3)nccc2c1NC(=O)c1csc2c(N)ncnc12 (stereo not shown) [Compound 20, 4-amino-N-(1-((4-chlorophenyl)(hydroxy)methyl)-6-methylisoquinolin-5-yl)thieno[3,2-d]pyrimidine-7-carboxamide] | 10.7 ± 1.93 nM
CC(=O)c1ccc(Nc2nccc3c(NC(=O)c4cccc5c(N)ncnc45)c(C)ccc23)cc1 [Compound 63, N-(1-((4-acetylphenyl)amino)-6-methylisoquinolin-5-yl)-4-aminoquinazoline-8-carboxamide] | 5.39 ± 0.8 nM
COc1ccc(Nc2nccc3c(NC(=O)c4cccc5c(N)ncnc45)c(C)ccc23)cc1OC [Compound 68, 4-amino-N-(1-((3,4-dimethoxyphenyl)amino)-6-methylisoquinolin-5-yl)quinazoline-8-carboxamide] | 15 ± 2.65 nM
Cc1ccc2c(Nc3ccc(Cl)c(CN(C)C)c3)nccc2c1NC(=O)c1cccc2c(N)ncnc12 [Compound 64, 4-amino-N-(1-((4-chloro-3-((dimethylamino)methyl)phenyl)amino)-6-methylisoquinolin-5-yl)quinazoline-8-carboxamide] | 13 ± 3.58 nM
Cc1ccc2c(C(=O)c3ccccc3Cl)nccc2c1NC(=O)c1csc2c(N)ncnc12 [Compound 11, 4-amino-N-(1-(2-chlorobenzoyl)-6-methylisoquinolin-5-yl)thieno[3,2-d]pyrimidine-7-carboxamide] | 33.1 ± 7.2 nM
Cc1ccc2c(Nc3cccc(Cl)c3F)nccc2c1NC(=O)c1ccnc2c(N)ncnc12 [Compound 81, 4-amino-N-(1-((3-chloro-2-fluorophenyl)amino)-6-methylisoquinolin-5-yl)pyrido[3,2-d]pyrimidine-8-carboxamide] | 22 ± 3.69 nM
Cc1ccc2c(Nc3cc(F)ccc3F)nccc2c1NC(=O)c1cccc2c(N)ncnc12 [Compound 72, 4-amino-N-(1-((2,5-difluorophenyl)amino)-6-methylisoquinolin-5-yl)quinazoline-8-carboxamide] | 6.9 ± 1.3 nM
Cc1ccc2c(Cc3ccccc3F)nccc2c1NC(=O)c1csc2c(N)ncnc12 [Compound 2, 4-amino-N-(1-(2-fluorobenzyl)-6-methylisoquinolin-5-yl)thieno[3,2-d]pyrimidine-7-carboxamide] | 35.6 ± 2.4 nM
COc1ccc(C(O)c2nccc3c(NC(=O)c4csc5c(N)ncnc45)c(C)ccc23)cc1 (stereo not shown) [Compound 6, 4-amino-N-(1-(hydroxy(4-methoxyphenyl)methyl)-6-methylisoquinolin-5-yl)thieno[3,2-d]pyrimidine-7-carboxamide] | 25.2 ± 4.08 nM

Target: mutant CRAF enzyme (RAF1 Y340D and Y341D) (Homo sapiens (Human), UniProt P04049, Y340D/Y341D)
Sequence (P04049 whole entry Y340D/Y341D): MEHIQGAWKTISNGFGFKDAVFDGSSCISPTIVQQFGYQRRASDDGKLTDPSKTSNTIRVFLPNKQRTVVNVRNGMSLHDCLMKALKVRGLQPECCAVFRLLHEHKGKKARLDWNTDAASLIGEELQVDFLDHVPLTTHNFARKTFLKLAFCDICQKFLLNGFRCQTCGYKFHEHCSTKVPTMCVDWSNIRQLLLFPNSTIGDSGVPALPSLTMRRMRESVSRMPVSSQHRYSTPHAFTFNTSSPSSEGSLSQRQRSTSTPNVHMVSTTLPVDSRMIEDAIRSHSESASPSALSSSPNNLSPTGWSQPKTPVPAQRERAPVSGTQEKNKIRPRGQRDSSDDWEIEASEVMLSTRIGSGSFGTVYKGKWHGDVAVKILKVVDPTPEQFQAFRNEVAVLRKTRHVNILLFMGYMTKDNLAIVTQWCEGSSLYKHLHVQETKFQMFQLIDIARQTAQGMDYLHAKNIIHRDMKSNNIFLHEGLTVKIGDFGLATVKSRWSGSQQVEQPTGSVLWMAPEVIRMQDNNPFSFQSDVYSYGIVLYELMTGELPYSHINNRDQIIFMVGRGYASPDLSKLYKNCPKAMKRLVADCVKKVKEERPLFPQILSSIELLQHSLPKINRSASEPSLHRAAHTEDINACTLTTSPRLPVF
Test: RAF inhibition assay (TB-PMAP2K1 kit), mutant CRAF
Assay type: biochemical
Conditions: FLUORESCEIN-MAP2K1 substrate, 60 min reaction

SMILES | IC50
Cc1ccc2c(Nc3ccc(F)c(Cl)c3)nccc2c1NC(=O)c1cnc2c(N)ncnn12 [Compound 58, 4-amino-N-(1-((3-chloro-4-fluorophenyl)amino)-6-methylisoquinolin-5-yl)imidazo[2,1-f][1,2,4]triazine-7-carboxamide] | 2.68 ± 0.13 nM
COc1ccc(Nc2nccc3c(NC(=O)c4cccc5c(N)ncnc45)c(C)ccc23)c(F)c1 [Compound 60, 4-amino-N-(1-((2-fluoro-4-methoxyphenyl)amino)-6-methylisoquinolin-5-yl)quinazoline-8-carboxamide] | 3.14 ± 0.09 nM
Cc1ccc2c(Nc3cccc(C(F)(F)F)c3)nccc2c1NC(=O)c1cnc2c(N)ncnn12 [Compound 43, 4-amino-N-(6-methyl-1-((3-(trifluoromethyl)phenyl)amino)isoquinolin-5-yl)imidazo[2,1-f][1,2,4]triazine-7-carboxamide] | 4.49 ± 0.95 nM
